Source: US20250195431A1, “LIPID NANOPARTICLES FOR TARGETED DELIVERY OF MRNA” (Trustees of Tufts College, priority 2022, published 2025)

Legend:
[1] = test system: IFN-γ-secreting T cells; assay: T cell response by ELISPOT after two doses of spike mRNA/LNP; set-up: species or system mice; conditions: mouse, in vivo
[2] = test system: Angptl3; assay: ABE8e mRNA/sgRNA/LNPs injected to rodents: base editing and serum biomarkers; conditions: in vivo
Method: Significance measured with one way ANOVA. *P<0.05 **P<0.01 ***P<0.001 ****P<0.0001.
Blood taken on day 7. […] Significance measured with one way ANOVA *P<0.05 **P<0.01 ***P<0.001 ****P<0.0001.
Significance measured by one-way ANOVA.
Next LNPs (e.g., ABE8e mRNA/sgRNA/LNPs comprising lipid 88) were injected to rodents. In some cases, one dose of 3 mg/kg LNPs was administered. In some cases, 2 doses of 3 mg/kg LNPs were administered 48 hours apart. […] Significance measured with one way ANOVA. *P<0.05 **P<0.01 ***P<0.001 ****P<0.0001. Seven days post administration of the LNPs, blood samples were collected from treated animals, and various biomarkers were measured, including Angptl3, cholesterol, triglyceride, ALT, AST, and IL-6. […] Significance measured with one way ANOVA *P<0.05 **P<0.01 ***P<0.001 ****P<0.0001. […] Significance measured with one way ANOVA *P<0.05 **P<0.01 ***P<0.001 ****P<0.0001. […] Significance measured by one-way ANOVA. […] Significance measured by one-way ANOVA.

[3] = test system: IgG anti-spike antibody; format: in vivo; conditions: mice, I.M., two doses
[4] = test system: Exon 6 of Angltl 3; assay: Base editing with mRNA encoding ABE8e and sgRNA_SA or sgRNA_SD using lipids (306O12B, L88 and L10); conditions: among 306O12B
[5] = test system: Firefly luciferase expression; assay: In vivo optimization of Lipid 88 formulations, intramuscular (I.M.) administration, bioluminescence; set-up: species or system mice; conditions: mouse
Method: Various formulations of mRNA/LNPs comprising lipid 88 were tested in vivo, including a plurality of ratios of ionizable lipids to helper lipids, and ratios of RNA to lipids. […] The luc mRNA/LNPs were then given to both adult and neonatal mice via various routes of administration (e.g., intravenously, intramuscularly, or through facial vein). After a period of time post injection (e.g., 6-80 hours), substrates of luciferase were administered to the animals and whole-body imaging was performed using IVIS imaging system.

With CCCCCCCCSSCCOC(=O)CCN(CCCN(C)CCCN(CCC(=O)OCC(CC)CCCC)CCC(=O)OCC(CC)CCCC)CCC(=O)OCC(CC)CCCC (stereo not drawn) [Lipid 65] the “T cell response (ELISPOT), comparison of LNPs” value [1] was “highest T cell response”.
With CCCCCCC(CCCC)COC(=O)OCCOC(=O)CCN(CCCN(C)CCCN(CCC(=O)OCCOC(=O)OCC(CCCC)CCCCCC)CCC(=O)OCCOC(=O)OCC(CCCC)CCCCCC)CCC(=O)OCCOC(=O)OCC(CCCC)CCCCCC (stereo not drawn) [Lipid 88] the “percent of base editing, single dose vs double dose” value [2] was “maximal editing was reached with single dose”, the “anti-spike IgG titer (ELISA), comparison of LNPs” value [3] was “highest anti-spike IgG titer” and the “transfection and editing efficiency” value [4] was roughly 60%. The “T cell response (ELISPOT), comparison of LNPs” value [1] was “highest T cell response” and the “delivery of luc mRNA (bioluminescence over time)” value [5] was “enhanced delivery of luc mRNA to the mice compared with LNPs formulated with 113O12B”.
